Assay results taken from patent US20230279146A1, “VISCOSITY REDUCING EXCIPIENTS AND COMBINATIONS THEREOF FOR HIGHLY CONCENTRATED PROTEIN FORMULATIONS” (Merck Patent GmbH, priority 2020, published 2023).
Entries after “also recorded” stand apart in the source; their conditions may differ. Structures can show the parent of a compound that is named as a salt.

Legend:
Assay type in all cases: physicochemical
[1] = tested on: Infliximab; assay: Thermal stability (Tm, Tagg) of Infliximab in phosphate buffer pH 7.2 by nano-DSF; settings: Infliximab pH 7.2, change versus control; for aggregation onset temperature Tagg: 150 mM excipient; for thermodynamic transition temperature characterizing heat induced protein unfolding (Tm): 150 mM valine, leucine, ascorbic acid or proline, 5 mM cyanocobalamin
Method: 2.1 Thermal Stability of Infliximab Formulated in Phosphate Buffer pH 7.2 Containing Valine, Leucine, Ascorbic Acid, Cyanocobalamin and Proline as Single Excipients
Buffers and samples were prepared as described under 1.1.
The nano-DSF Technology of a Prometheus system (NanoTemper Technologies GmbH, Munich, Germany) was used to determine melting points and aggregation points.
Fluorescence was measured at 330 and 350 nm as well as the backscattering intensity over a temperature range from 20 to 95° C. with an incline of 1° C./min.
Buffers and samples were prepared as described under 1.4 and 1.5.
Thermal stability measurements were performed as described under 2.1.

[2] = tested on: Infliximab; assay: Viscosity of Infliximab formulated in phosphate buffer pH 7.2 with single excipients (mVROC microfluidic viscometer, 20° C.); settings: for viscosity reducing effect on the Infliximab solution: protein concentrations 152 mg/ml and 185 mg/ml, 150 thiamine hydrochloride, thiamine monophosphate
Method: Individual excipient solutions of 150 mM valine, leucine, phenylalanine, ascorbic acid, pyridoxine, proline and thiamine monophosphate were prepared in phosphate buffer pH 7.2. In the same buffer, a 5 mM solution of cyanocobalamin was prepared. Folic acid was prepared in a 13 mM concentration in phosphate puffer pH 7.2. Thiamine pyrophosphate was prepared in a 75 mM concentration in phosphate puffer pH 7.2. The pH was adjusted using HCl or NaOH where necessary.
For absorption spectroscopy, the absorbance at 280 nm was measured using a BioSpectrometer® kinetic (Eppendorf, Hamburg, Germany) with a protein extinction coefficient of A0.1%, 280 nm=1.428.
The mVROC™ Technology (Rheo Sense, San Ramon, Calif., USA) was used for viscosity measurements.
Measurements were performed at 20° C. using a 500 μl syringe and a shear rate of 3000 s-1. A volume of 200 μl was used. All samples were measured as triplicates.
Results of viscosity measurements regarding these experiments can be seen in FIG. 1, FIG. 2 and FIG. 3.

[3] = tested on: Evolocumab; assay: Viscosity of Evolocumab formulated in acetate buffer pH 5.0 with single excipients (mVROC microfluidic viscometer, 20° C.); settings: for viscosity reducing effect compared among the excipients: Evolocumab pH 5.0, 150 mM excipient, data set with concentration by absorption spectroscopy; for viscosity for Evolocumab formulations: pH 5.0, 150 mM excipient; for viscosity of the formulation: Evolocumab 196 mg/ml, 150 mM pyridoxine, thiamine hydrochloride or ascorbic acid, 75 mM Paracetamol; for viscosity of the formulation / viscosity of a Evolocumab formulation: pH 5.0
Method: 20 mM Acetate buffer was prepared by mixing 1.2 mg/ml glacial acetic acid with ultrapure water. pH was adjusted to 5.0 using HCl and NaOH if necessary. 0.1 mg/ml Polysorbate 80 was added as stabilizer
Excipient solutions of 150 mM leucine, isoleucine, phenylalanine, ascorbic acid, pyridoxine, proline, lysine, guanidine hydrochloride, thiamine hydrochloride, thiamine monophosphate were prepared in acetate buffer pH 5.0, respectively. Similarly, 25 mM quinine hydrochloride and 5 mM cyanocobalamin were prepared, respectively. Paracetamol and thiamine pyrophosphate were prepared with a concentration of 75 mM. The pH was adjusted using HCl or NaOH, if necessary.
When excipients themselves have a strong absorbance at 280 nm a Bradford-Assay was used.
The mVROC™ Technology (Rheo Sense, San Ramon, Calif. USA) was used for viscosity measurements.
A volume of 200 μl was used. All samples were measured as triplicates.

[4] = protein concentration 122 mg/ml (absorption spectroscopy), pH 7.2, 150 mM excipient, versus no excipient
[5] = protein concentration 143 mg/ml, pH 7.2, 150 mM excipient, versus no excipient
[6] = higher protein concentration of 192 mg/ml
[7] = protein concentration 192 mg/ml (first mention, absorption spectroscopy)
[8] = protein concentration 149 mg/ml, 150 mM pyridoxine, thiamine hydrochloride or thiamine monophosphate, 5 mM cyanocobalamin, 13 mM folic acid, 75 mM thiamine pyrophosphate
[9] = protein concentration 174 mg/ml, 150 mM pyridoxine, ascorbic acid, thiamine hydrochloride or thiamine phosphate, 5 mM cyanocobalamin, 13 mM folic acid, 75 mM thiamine pyrophosphate, versus formulation without excipients
[10] = 5 mM cyanocobalamin, 25 mM quinine hydrochloride
[11] = protein concentration 180 mg/ml (Bradford assay), 150 mM pyridoxine or thiamine hydrochloride, 5 mM cyanocobalamin, 25 mM quinine hydrochloride, 75 mM paracetamol
[12] = third data set, 75 mM thiamine pyrophosphate, 150 mM thiamine hydrochloride, thiamine monophosphate (thiamine monophosphate only at 180 mg/ml)

Compound | thermodynamic transition temperature characterizing heat induced protein unfolding (Tm) [1] | viscosity for Evolocumab formulations [3, 6] | viscosity for Evolocumab formulations [3, 7] | viscosity of the formulation [2, 8] | viscosity of the formulation [2, 9] | viscosity of the formulation [3, 10] | viscosity of a Evolocumab formulation [3, 11] | further results
CC(C)[C@H](N)C(=O)O [valine] | increase | – | – | – | – | – | – | aggregation onset temperature Tagg [1]: increase; viscosity of the formulation [2, 4]: reduced the viscosity of the formulation
CC(C)C[C@H](N)C(=O)O [leucine] | increase | reduced viscosity | reduced viscosity | – | – | – | – | aggregation onset temperature Tagg [1]: increase; viscosity of the formulation [2, 4]: reduced the viscosity of the formulation; viscosity of the formulation [2, 5]: reduced viscosity of the formulation; viscosity reducing effect compared among the excipients [3]: most pronounced viscosity reducing effect
O=C(O)[C@@H]1CCCN1 [proline] | increase | reduced viscosity | – | – | – | – | – | aggregation onset temperature Tagg [1]: increase; viscosity of the formulation [2, 4]: reduced the viscosity of the formulation; viscosity of the formulation [2, 5]: reduced viscosity of the formulation
N[C@@H](Cc1ccccc1)C(=O)O [phenylalanine] | – | reduced viscosity | reduced viscosity | – | – | – | – | viscosity of the formulation [2, 4]: reduced the viscosity of the formulation; viscosity of the formulation [2, 5]: reduced viscosity of the formulation; also recorded: most efficient viscosity reducing excipient
CC[C@H](C)[C@H](N)C(=O)O [isoleucine] | – | reduced viscosity | reduced viscosity | – | – | – | – | –
Cc1ncc(CO)c(CO)c1O [pyridoxine] | – | – | – | reduce the viscosity of the formulation | viscosity reducing effect | reduced viscosity of the formulation | reduced | –
CC(=O)Nc1ccc(O)cc1 [paracetamol, reference compound] | – | – | – | – | – | reduced the viscosity of the formulation | reduced viscosity of the formulation | –
Nc1nc2ncc(CNc3ccc(C(=O)N[C@@H](CCC(=O)O)C(=O)O)cc3)nc2c(=O)[nH]1 [folic acid] | – | – | – | reduce the viscosity of the formulation | reduce the viscosity of the formulation | – | – | –
NCCCC[C@H](N)C(=O)O [lysine] | – | reduced viscosity | reduced viscosity | – | – | – | – | viscosity reducing effect compared among the excipients [3]: most pronounced viscosity reducing effect
C=C[C@H]1C[N@@]2CC[C@H]1C[C@H]2[C@H](O)c1ccnc2ccc(OC)cc12 [quinine hydrochloride, (R)-[(1S,2S,4S,5R)-5-ethenyl-1-azabicyclo[2.2.2]octan-2-yl](6-methoxyquinolin-4-yl)methanol dihydrate hydrochloride, reference compound] | – | – | – | – | – | reduced the viscosity of the formulation | reduced viscosity of the formulation | –
Cc1ncc(C[n+]2csc(CCO[P@](=O)(O)OP(=O)(O)O)c2C)c(N)n1 [thiamine pyrophosphate] | – | – | – | reduce the viscosity of the formulation | reduce the viscosity of the formulation | – | – | viscosity reducing effect on the Infliximab solution ([2]; 75 mM thiamine pyrophosphate): strong viscosity reducing effect; viscosity reducing efficiency ([3]; formulations with 179 mg/ml and 204 mg/ml Evolocumab, 75 mM excipient): highly efficient; viscosity of a Evolocumab formulation [3, 12]: reduced the viscosity
N=C(N)N [guanidine hydrochloride, carbamimidoylazanium chloride] | – | reduced viscosity | reduced viscosity | – | – | – | – | viscosity reducing effect compared among the excipients [3]: most pronounced viscosity reducing effect
Cc1ncc(C[n+]2csc(CCOP(=O)(O)O)c2C)c(N)n1 [thiamine monophosphate] | – | – | – | reduce the viscosity of the formulation | high viscosity reducing potential | – | – | viscosity of the formulation ([2]; protein concentration 174 mg/ml, 150 mM pyridoxine, ascorbic acid, thiamine hydrochloride or thiamine phosphate, 5 mM cyanocobalamin, 13 mM folic acid, 75 mM thiamine pyrophosphate, versus formulation without excipients, listed as thiamine phosphate): viscosity reducing effect; viscosity reducing effect on the Infliximab solution ([2]; 75 mM thiamine pyrophosphate): strong viscosity reducing effect; viscosity of a Evolocumab formulation [3, 12]: reduced the viscosity
Cc1ncc(C[n+]2csc(CCO)c2C)c(N)n1 [thiamine hydrochloride] | – | – | – | – | – | – | reduced | viscosity of the formulation ([2]; protein concentration 149 mg/ml, 150 mM pyridoxine, thiamine hydrochloride or thiamine monophosphate, 5 mM cyanocobalamin, 13 mM folic acid, 75 mM thiamine pyrophosphate, hydrochloride): reduce the viscosity of the formulation; also recorded: high viscosity reducing potential; viscosity of the formulation ([2]; protein concentration 174 mg/ml, 150 mM pyridoxine, ascorbic acid, thiamine hydrochloride or thiamine phosphate, 5 mM cyanocobalamin, 13 mM folic acid, 75 mM thiamine pyrophosphate, versus formulation without excipients, hydrochloride): high viscosity reducing potential; viscosity of the formulation ([2]; protein concentration 174 mg/ml, 150 mM pyridoxine, ascorbic acid, thiamine hydrochloride or thiamine phosphate, 5 mM cyanocobalamin, 13 mM folic acid, 75 mM thiamine pyrophosphate, versus formulation without excipients, listed as thiamine hydrochoride, hydrochloride): viscosity reducing effect; viscosity reducing effect on the Infliximab solution ([2]; 75 mM thiamine pyrophosphate): strong viscosity reducing effect; viscosity of the formulation ([3]; 5 mM cyanocobalamin, 25 mM quinine hydrochloride, hydrochloride): reduced viscosity of the formulation; also recorded: most efficient viscosity reducing excipient; viscosity of a Evolocumab formulation [3, 12]: reduced the viscosity
O=C1O[C@H]([C@@H](O)CO)C(O)=C1O [ascorbic acid] | increase | – | – | – | viscosity reducing effect | reduced viscosity of the formulation | – | aggregation onset temperature Tagg [1]: increase
cyanocobalamin | increase | – | – | reduce the viscosity of the formulation | reduce the viscosity of the formulation | reduced the viscosity of the formulation | reduced viscosity of the formulation | –
